The test system of test [1] is HeLa cells. The test can be described thus: Dopamine-induced cell death in HeLa cells (beta-galactosidase reporter viability). Type of test: cell-based, Human. To be noted: 18 hours; for cell survival rate: P<0.001.
Description: (§2) Models of Apoptosis: • Three model systems of cell death were used: • 1. […] Apoptosis induced by Bax. This model utilizes an in vitro assay system for regulation of cell death by the Bcl-2 family of proteins: Cells were grown as described above in example 3a. Cells from log phase of growth were harvested using trypsin/EDTA and resuspended at a density of 5.0×10^6 cells/ml in 400 μl PBS. Cell suspension was then transferred to electroporation chambers containing a marker plasmid (pCDNA/Lac z) encoding beta-galactosidase as a reporter gene (10 μg)+a control plasmid (pCDNA), to bring total plasmid quantity to 23 micrograms+one of the following regimens: • 1. An expression plasmid, encoding Bcl-2 (0.42 μg) • 2. An expression plasmid, encoding Bax (0.42 μg). • 3. Bcl-2-encoding plasmid+Bax-encoding plasmid (0.42 μg each). • 4. Test compound, or an expression plasmid encoding for the test peptide+either Bcl-2-encoding plasmid or Bax-encoding plasmid or both. • 5. Control: only the marker plasmid.
Cell viability was then evaluated by the measurement of the beta-galactosidase activity, as specified above.
Synthetic DIP1 was introduced into HeLa cells with a beta-galactosidase reporter plasmid by electroporation. […] Cell viability was then evaluated by measurement of the beta-galactosidase activity.
Test [2] relates to HeLa cells. To be noted: 18 hours.
Description: as §2
Cell viability was then evaluated by determining beta-galactosidase activity.
For test [3], the system named is HeLa cells. Kind of test: In vitro assay system for regulation of cell death by the Bcl-2 family (Bax-induced cell death, electroporation, beta-galactosidase reporter). The format is cell-based, Human. Conditions: for cell viability as compared to controls: expression plasmid transfected alone by electroporation, 18 hours post-transfection. An excerpt:
This assay is based on transient transfection of cultured cells (e.g., HeLa cells, SH-SY5Y neuroblastoma cells. PC12, pheochromocytoma cells, 293 kidney cells, primary neuronal cells etc.), via electroporation or cationic-lipid-mediated transfection, by an expression vector, harboring a reporter gene (e.g. the gene encoding for beta-galactosidase, or the gene encoding for luciferase). Based on the consideration that gene expression requires high level of function and integrity of cellular systems, a direct correlation can be drawn between the activity of the protein encoded by the reporter gene, and the survival rates of the transfected cells. The reporter gene is co-transfected with a second expression vector, carrying either the bcl-2 or bax genes, therefore affecting the cellular apoptotic threshold towards life or death, respectively. In addition, transfection of cells with a combination of both bcl-2 and bax genes is performed, to examine the activity of each of these two proteins in opposing the death-inhibitory or promoting-effect of the other, respectively.
(§1) a. Cell cultures: • 1. HeLa cells: Human cervical carcinoma cells (HeLa) were grown in Dulbecco's modified Eagle's medium (DMEM), supplemented with 10% fetal calf serum (FCS) and 1% penicillin-streptomycin-Nystatin solution (Biological Industries, Israel), and 1% L-Glutamine solution (2 mM, biological Industries, Israel). Cells were grown in monolayer at 37° C. in 5% CO2. • 2. Kidney 293 cells (T): Human embryonic kidney 293 cells were grown in the conditions described for the HeLa cells.
b. Models of Apoptosis: • Three model systems of cell death were used: • 1. Apoptosis induced by dopamine: Exposure of cells to dopamine at 100-500 micromolar for 24 hours induces cell death characteristic of apoptosis (Ziv I, et al., Neurosci Lett 170:136-140, 1994; Offen D, et al., Biochim Biophys Acta 1268:171-177, 1995; Masserano J M, et al., Mol Pharmacol 50:1309-1315, 1996; Shirvan A, et al., J. Neurochem 69:539-549, 1997; Corona V., et al., J. Neurochem 69:1870-1881, 1997; Velez-Pardo C, et al., Pharmacol Toxicol 80:76-84, 1997; Shinkai T, et al., J Neurosci Res. 393-399, 1997; Simantov R, et al., Neuroscience 74:39-50, 1996; Gabby M, et al., Neuropharmacology 35:571-578, 1996). […] Apoptosis induced by Bax. This model utilizes an in vitro assay system for regulation of cell death by the Bcl-2 family of proteins: Cells were grown as described above in example 3a. Cells from log phase of growth were harvested using trypsin/EDTA and resuspended at a density of 5.0×10^6 cells/ml in 400 μl PBS. Cell suspension was then transferred to electroporation chambers containing a marker plasmid (pCDNA/Lac z) encoding beta-galactosidase as a reporter gene (10 μg)+a control plasmid (pCDNA), to bring total plasmid quantity to 23 micrograms+one of the following regimens: • 1. An expression plasmid, encoding Bcl-2 (0.42 μg) • 2. An expression plasmid, encoding Bax (0.42 μg). • 3. Bcl-2-encoding plasmid+Bax-encoding plasmid (0.42 μg each). • 4. Test compound, or an expression plasmid encoding for the test peptide+either Bcl-2-encoding plasmid or Bax-encoding plasmid or both. • 5. Control: only the marker plasmid.
After one minute of incubation, electroporation was performed at 1050 μF and 220 V for a duration of 10-30 ms, using an Equibio gene pulser. Cells from the cuvettes were then pooled into a complete medium with 10% FCS, and 1×10^6 cells were aliquoted into 3.5 cm plates. At 18 hours post-transfection, cell viability was assessed through measurement of beta-galactosidase activity by standard methods (Sambrook, Fritch, Maniatis, Molecular cloning; A laboratory manual, Cold Spring Harbour Laboratory Press, pp 16.66, 1989). OD values were expressed as percent of control, and statistical significance was evaluated by appropriate parametric or non-parametric statistical tests.
Methods: An expression plasmid, encoding the DIP1 (synthesized as described above in Example 2) was used. […]

Test [4] has as its system embryonic kidney 293T cells. Kind of test: Cell-killing effect of Bax on embryonic kidney 293T cells (beta-galactosidase reporter). The format is cell-based, Human. Conditions: expression plasmids encoding Bax and DIP1, Superfect transfection, 18 hours. The protocol: as §1
Methods: Human embryonic kidney 293T cells were grown as specified in Example 3.a. Cells were co-transfected using the Superfect Transfection Kit (Quiagen), with 5 μg total DNA of the following effectors: pCDNA/Lac-z reporter plasmid and one of the following:
• 1). Expression plasmid encoding DIP1. • 2). Expression plasmid encoding Bax. • 3). Expression plasmids, encoding Bax and DIP1.
After 18 hours, the cells were harvested for beta-galactosidase activity assay.
Human embryonic kidney 293T cells were co-transfected by […] with a reporter plasmid encoding beta-galactosidase, in combination with either an expression plasmid encoding DIP1; an expression plasmid encoding Bax; or expression plasmids encoding Bax and DIP1. Cell viability was evaluated after 18 hours, by measurement of beta-galactosidase activity.

Consider five molecules from patent US6849603B1, “Peptides for inhibition of apoptosis and pharmaceutical compositions containing them” (NSS T Neurosurvival Technologies Ltd., priority 1998, dated 2005).

Where two headings read alike, the source gives them in different places.

Consider `NCCc1ccc(O)c(O)c1` [dopamine, reference compound], for which the cell survival is 30.8 ± 6.0% of control in the test with HeLa cells [1] (dopamine 150 μM alone) and 8.4 ± 7.0% of control with HeLa cells [1] (dopamine 300 μM alone).
In the case of `OO` [hydrogen peroxide, reference compound], the cell survival rate in the test on HeLa cells [2] (hydrogen peroxide 100 μM alone, mean±SD) is 20.4±2.8% of control; in the test on HeLa cells [2] (hydrogen peroxide 200 μM alone, mean±SD) it was 5.8±2.1% of control.
For “Bax: death-inducing Bcl-2 family protein, expressed from a transfected expression plasmid”, the cell survival rate with HeLa cells [3] (Bax-encoding plasmid alone, 18 hours) came out at 37.0 ± 2.2%. In the test with HeLa cells [3], the “cell viability as compared to controls” value was “marked death-inducing effect”.
For the molecule “Bcl-2: death-inhibitory protein, expressed from a transfected expression plasmid”, in the test with HeLa cells [3] (co-transfection with Bax-encoding plasmid, 18 hours), the “cell-killing effect of Bax on co-transfection” value is “markedly counteracted”. Besides, in the test with HeLa cells [3], the “cell viability as compared to controls” value is listed as “increases cell viability”.
“H-FELRYRRAF-OH [DIP1, Phe-Glu-Leu-Arg-Tyr-Arg-Arg-Ala-Phe]”: the “counteracting Bax toxicity” value in test [4] was “markedly active in counteracting Bax toxicity”. Besides, the cell survival rate with HeLa cells [1] (synthetic DIP1 by electroporation + dopamine 150 μM) is on record as 75.4+9.0%; with HeLa cells [1] (synthetic DIP1 by electroporation + dopamine 300 μM) it was 40.2+8.0%; in the test with HeLa cells [3] (co-transfection of DIP1-encoding plasmid with Bax-encoding plasmid, 18 hours, p<0.001), 71.4 ± 9.4 % of control; in the test on HeLa cells [2] (synthetic DIP1 by electroporation + hydrogen peroxide 100 μM, p<0.001) it was 53.3±8.8%; with HeLa cells [2] (synthetic DIP1 by electroporation + hydrogen peroxide 200 μM, p<0.001), 33.4±3.7%. Moreover, in the test on HeLa cells [3], the “cell viability as compared to controls” value is on record as “markedly enhanced cell viability”.
